Measurements reported in patent US20230406849A1, “KRAS INHIBITORS FOR TREATMENT OF CANCERS” (TYLIGAND BIOSCIENCE (SHANGHAI) LIMITED, priority 2020, published 2023).
Like-named read-outs stand apart in the source and are kept apart here.

Legend:
[1] = tested on: human non-small cell lung cancer NCI-H358 xenograft; experiment: Antitumor activity in NCI-H358 xenograft mouse model; format: in vivo, NPSG mice; conditions: NPSG mice, gavage once daily 10 mg/kg, day 14
Protocol: Tumor growth inhibitory activity of the compounds of the present disclosure was evaluated and verified in a human non-small cell lung cancer NCI-H358 xenograft mouse model.
[Test materials]: NCI-H358 cell line carrying KRAS G12C mutation, provided by KYinno Biotechnology Co., Ltd. (from ATCC, Cat #CRL-5807). NPSG mice, female, provided by Beijing Phenotek Biotechnologies Inc.
[Experimental procedure]: 5×10^6 NCI-H358 cells (containing 50% Matrigel) were inoculated subcutaneously on the right flank of 6-8 weeks old female NPSG mice, with the inoculation volume of 0.1 mL. When the average tumor size reached 160-220 mm^3, the mice were grouped randomly according to tumor size and body weight, upon which the mice were treated with compounds on the same day designated as Day 0. The mice were gavage administrated once daily at 10 mg/kg or solvent control (50 mM citrate buffer containing 10% cyclodextrin, pH5.0). Tumor volume and body weight were measured twice a week during the study. The tumor volume was calculated by the formula V=D×d×d/2, wherein D and d refer to the long and short diameter of the tumor respectively.
In addition, using the same materials and procedures as above, the tumor inhibition activity of Example 9 at different doses in the above-mentioned non-small cell lung cancer mouse model and its effect on body weight were also investigated.

[2] = Cassette pharmacokinetic experiment in rats (IV); format: in vivo; conditions: rat, plasma, 1 mg/kg, male SD rats, tail vein IV, 1 mg/mL each compound at 1 mL/kg
Source text: 2.1 Pharmacokinetic Properties of Some Compounds of the Present Disclosure Evaluated by Cassette Pharmacokinetic Experiments in Rats.
[Test materials]: Male SD rats, age: 6-8 weeks, body weight 220-250 g, purchased from Zhaoyan (Suzhou) New Drug Research Center Co., Ltd.; Tolbutamide (Aladdin, Cat #H1401054); Sulfobutyl-(Captisol, Shandong Binzhou Zhiyuan Biological Technology Co., Ltd, Cat #20191013); Propylene glycol (15)-stearate (Solutol, Meilun Bio, Cat #50206A); DMSO (Vetec Company, Cat #WXBD0293V); acetonitrile (Sigma-Aldrich, Cat #WXBD1744V); Methanol (Sigma-Aldrich, Cat #WXBD2831V).
[Experimental procedure]: The compound combination was prepared in a solvent of 5% DMSO/10% Solutol/85% (20% Captisol), and the final concentration of each compound was 1 mg/mL. The SD rats were treated with the compound preparation in 1 mL/kg by tail vein IV injection, and blood samples were collected at the time points of 5 min, 15 min, 30 min, 1 h, 2 h, 4 h, 8 h, and 24 h via external jugular vein puncture, centrifuged at low temperature for 20 minutes to collect plasma samples, which were stored at −80° C. until analysis.
[Sample analysis]: Establishing LC-MS/MS compound analysis method
Standard curve preparation: 20 μL of lmg/mL DMSO stock solution for each compound was aspirated and transferred to […] of 50% methanol working solution, and the resulting solution was serially diluted to obtain a standard curve working solution with concentrations of 20000, 10000, 5000, 1000, 500, 100, 50, 20 and […]. Then 5 µL of this standard curve working solution was mixed with 45 μL rat blank plasma to give a standard curve with concentrations of 2000, 1000, 500, 100, 50, 10, 2 and 1 ng/mL for quantification of unknown samples.
Sample pretreatment: 50 μL of unknown plasma sample or standard curve sample was mixed with 250 μL of acetonitrile containing internal standard as a precipitant. The plasma protein was precipitated, extracted for test compounds, and centrifuged at low temperature for 20 minutes. The supernatant was taken, mixed with 0.1% formic acid aqueous solution, and 5 μL of the resulting solution was aspirated for blood concentration analysis.
[Data processing]: A standard curve was plotted using mass spectrometry software, to quantify unknown samples, and pharmacokinetic parameters are calculated by Winnonlin 8.2 using the drug concentration of unknown samples at each time point.

[3] = tested on: human non-small cell lung cancer cells NCI-H358 with KRas G12C mutation; experiment: NCI-H358 cell proliferation, CellTiter-Glo Luminescent Cell Viability Assay; format: cell-based; conditions: for inhibition at 1 µM: 1 μM compound, read-out: Inhibition rate % (1 μM)
Source text: This assay verified the inhibitory activity of the compounds of the present disclosure on the proliferation of human non-small cell lung cancer cells NCI-H358 with KRas G12C mutation by using Promega's CellTiter-Glo® Luminescent Cell Viability Assay kit.
[Test materials]: NCI-H358 cell line (Cell Resource Center, IBMS, CAMS/PUMC, Item number: 3111C0001CCC000470), 96-well transparent flat-bottomed black-walled cell culture plate (Greiner Bio one, Cat #655096), RPMI-1640 Medium (GE, Cat #SH30809.01), Fetal Bovine Serum FBS (Thermo Fisher, Cat #10099-141), CellTiter-Glo® Luminescent Cell Viability Assay Kit (Promega, Cat #G7573), PBS (Solarbio, Cat #P1020), Trypsin (Thermo Fisher, Cat #25200072), DMSO (Sigma, Cat #D2650), Methyl cellulose (SIGMA, Cat #9004-67-5).
[Experimental procedure]: 180 μL of cell suspension (RPMI1640 solution with 10% FBS and 1% methyl cellulose) was charged to a 96-well cell culture plate at a density of 1500 cells/well. A control group containing no cells, no compounds and only 3D complete medium (RPMI 1640 solution with 1! Methyl cellulose and 10% FBS) (i.e. culture medium control) and a control group containing no compounds but cells (i.e. cell control) were set. AMG510 or the following reference compounds were used as positive controls. The cell plate was placed in a cell incubator overnight. A 10-fold drug solution (RPMI1640 solution with 10% FBS and 1% DMSO) was prepared at a concentration of 10 μM, and 20 μL of this solution was added to each well of the 96-well plate seeded with cells, so that the final concentration of the compounds in each well was 1 μM, and the DMSO concentration […] replicate wells were set up for each compound. The solutions of AMG510 or the following reference compounds were prepared in the same way and added to the positive control wells. The cell plate was placed in a cell incubator and cultured for 120 h. For endpoint detection, the CellTiter-Glo reagent was melted, and the cell plate was moved to room temperature to equilibrate for 30 minutes, added with 100 µL of CellTiter-Glo to each well, and shaken on an orbital shaker for 5 minutes to fully lyse the cells. The plate was kept at room temperature for 20 minutes to stabilize the luminescence signal, and the luminescence value of each well was full wavelength scanned with a multi-functional microplate reader (Molecular Devices, Spectramax M3 microplate reader).
[Test samples] The compounds of Examples 1-39, and reference compound A
[Data Analysis] The following formula was used to calculate the cell inhibition rate under the action of each concentration of the compounds:
Inhibition rate %=[1−(LumDrug to be tested−LumCulture medium control)/(LumCell control−LUMCulture medium control)]×100%
IC50 values were calculated using GraphPad Prism 7.0 software, nonlinear Sigmoidal regression was used to fit the data to obtain a dose-response curve.

Row | AUC(0-t) [2] [ng·h/mL] | clearance [2] [mL/min/kg] | half-life [2] [h] | IC50 ([3]; 120 h, read-out: IC50) [nM] | IC50 ([3]; read-out: IC50 value) [nM] | SMILES | TGI(%) [1] [%] | Tumor volume (mm^3) (day 14) [1] | inhibition at 1 µM ([3]; 120 h) [%]
1 | 657 | 20.9 | 2.87 | 15 | < 20 | C=CC(=O)N1CCN(c2c(C#N)c(O[C@@H]3CN(C)C[C@H]3OC)nc3c(F)c(-c4ccc(F)c5sc(N)nc45)c(Cl)cc23)C[C@H]1C [Example 1, 4-((R)-4-acryloyl-3-methylpiperazin-1-yl)-7-(2-amino-7-fluorobenzo[d]thiazol-4-yl)-6-chloro-8-fluoro-2-(((3R,4R)-4-methoxy-1-methylpyrrolidin-3-yl)oxy)quinoline-3-carbonitrile] | 71 | 478.4 | 94.7
2 | – | – | – | 3 | < 20 | C=CC(=O)N1CCN(c2c(C#N)c(O[C@@H]3CN(C)C[C@H]3OC)nc3c(F)c(-c4ccc(F)c5sc(N)nc45)c(Cl)cc23)CC1 [Example 2, 4-(4-Acryloylpiperazin-1-yl)-7-(2-amino-7-fluorobenzo[d]thiazol-4-yl)-6-chloro-8-fluoro-2-(((3R,4R)-4-methoxy-1-methylpyrrolidin-3-yl)oxy)quinoline-3-carbonitrile] | 69 | 497.3 | 97.6
3 | 592 | 27.4 | 2.66 | 18 | < 20 | C=CC(=O)N1CCN(c2c(C#N)c(-c3cccc4c3CCN(C)C4)nc3c(F)c(-c4ccc(F)c5sc(N)nc45)c(Cl)cc23)CC1 [Example 10, 4-(4-Acryloylpiperazin-1-yl)-7-(2-amino-7-fluorobenzo[d]thiazol-4-yl)-6-chloro-8-fluoro-2-(2-methyl-1,2,3,4-tetrahydroisoquinolin-5-yl)quinoline-3-carbonitrile] | – | – | 96.1
